Test system: 855422-203-R-J1-PDC complex spheroids, viability
Experiment: Anticancer human tumor 855422-203-R-J1-PDC patient-derived bladder carcinoma cell line growth inhibition [CLK]
Settings: for viability, T/C: stronger effect = lower value; active = viability on the fitted dose curve at most 10% of control; inactive = the rest
Procedure, shortened: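 Patient-derived tumor cells grown as complex spheroids with HUVEC endothelial cells and mesenchymal stem cells, treated with drug combinations. Concentrations descend in half-log steps from near clinical Cmax, or from 10 microM if Cmax unknown.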
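Note: spheroids exposed to drugs for seven days before readout.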
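Throughout, for viability, T/C: 100% = DMSO vehicle control wells.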

CC1COCCN1c1cc(C2(S(C)(=N)=O)CC2)nc(-c2ccnc3[nH]ccc23)n1 (configuration not stated) + CNC(=O)c1ccc(Nc2nc(OC3CCCC3)c3c(-c4ccc5nc(C)oc5c4)c[nH]c3n2)c(OC)c1
2340 nM: IC50 (curve of first compound, second compound 0.0316 µM)
inactive: viability, T/C (second compound 0.0316 µM, first compound 0.0316 µM) 101% | viability, T/C (second compound 0.0316 µM, first compound 0.1 µM) 95.5% | viability, T/C (second compound 0.0316 µM, first compound 0.316 µM) 103% | viability, T/C (second compound 0.0316 µM, first compound 1 µM) 111% | viability, T/C (second compound 0.0316 µM, first compound 3.16 µM) 31.3% | viability, T/C (second compound 0.0316 µM, first compound 10 µM) 11.1% | viability, T/C (second compound 0.1 µM, first compound 0.0316 µM) 61.3% | viability, T/C (second compound 0.1 µM, first compound 0.1 µM) 65% | viability, T/C (second compound 0.1 µM, first compound 0.316 µM) 57.3% | viability, T/C (second compound 0.1 µM, first compound 1 µM) 52.4% | viability, T/C (second compound 0.1 µM, first compound 3.16 µM) 18.6% | viability, T/C (second compound 0.1 µM, first compound 10 µM) 11.6% | viability, T/C (second compound 0.316 µM, first compound 0.0316 µM) 23.3% | viability, T/C (second compound 0.316 µM, first compound 0.1 µM) 22% | viability, T/C (second compound 0.316 µM, first compound 0.316 µM) 23.2% | viability, T/C (second compound 0.316 µM, first compound 1 µM) 15.2% | viability, T/C (second compound 0.316 µM, first compound 3.16 µM) 11.8% | viability, T/C (second compound 1 µM, first compound 0.0316 µM) 22.3% | viability, T/C (second compound 1 µM, first compound 0.1 µM) 20.9% | viability, T/C (second compound 1 µM, first compound 0.316 µM) 24.7% | viability, T/C (second compound 1 µM, first compound 1 µM) 17.8% | viability, T/C (second compound 1 µM, first compound 3.16 µM) 12.2% | viability, T/C (second compound 3.16 µM, first compound 0.0316 µM) 22.9% | viability, T/C (second compound 3.16 µM, first compound 0.1 µM) 20.1% | viability, T/C (second compound 3.16 µM, first compound 0.316 µM) 18.5% | viability, T/C (second compound 3.16 µM, first compound 1 µM) 20% | viability, T/C (second compound 3.16 µM, first compound 3.16 µM) 10.8% | viability, T/C (second compound 10 µM, first compound 0.0316 µM) 18.1% | viability, T/C (second compound 10 µM, first compound 0.1 µM) 18.4% | viability, T/C (second compound 10 µM, first compound 0.316 µM) 21% | viability, T/C (second compound 10 µM, first compound 1 µM) 20.2% | viability, T/C (second compound 10 µM, first compound 3.16 µM) 13.6% | viability, T/C (second compound 10 µM, first compound 10 µM) 7.4%
1070 nM: IC50 (curve of first compound, second compound 0.1 µM)
< 31.6 nM: IC50 (curve of first compound, second compound 0.316 µM) | IC50 (curve of first compound, second compound 1 µM) | IC50 (curve of first compound, second compound 3.16 µM) | IC50 (curve of first compound, second compound 10 µM)
active: viability, T/C (second compound 0.316 µM, first compound 10 µM) 9.36% | viability, T/C (second compound 1 µM, first compound 10 µM) 6.79% | viability, T/C (second compound 3.16 µM, first compound 10 µM) 6.49%

CNC(=O)c1ccc(Nc2nc(OC3CCCC3)c3c(-c4ccc5nc(C)oc5c4)c[nH]c3n2)c(OC)c1
inactive: viability, T/C (compound 0.316 µM) 23.8% [middle of 12 runs] | viability, T/C (compound 1 µM) 22.5% [middle of 12 runs] | viability, T/C (compound 3.16 µM) 21.2% [middle of 12 runs] | viability, T/C (compound 10 µM) 20.1% [middle of 11 runs]
142 nM [middle of 11 runs]: IC50 (compound alone, run of 08/01/2023)

Reference: PubChem BioAssay AID2060609 (Molecular Pharmacology Branch, DTP, NCI, 2025)
